Test results as given in PMC10074041 (RSC Advances, 2023).
Values after ≈ are worked out from the molar mass of the structure shown.

Target: α-glucosidase
Test: pNPG hydrolysis, absorbance […] nm
Type: biochemical
Conditions: 1.25 mM pNPG, phosphate pH 6.8, 35 min preincubation at room temperature

IC50 (μg mL^-1) / In vitro α-glucosidase inhibitory activity: 40.96 ± 0.96 µg/mL (≈ 183 µM)
SMILES: CC(=O)NC(CC(=O)O)c1ccccc1O (stereo not shown) [L1, 3-Acetylamino-3(2-hydroxyphenyl) propanoic acid]
